Assay [1] concerns A549 cells. The assay is described as follows: Measurement of PGE2-increasing activity in A549 cells (IL-1β stimulated, PGE2 quantified in supernatant). It is filed as cell-based. The conditions noted are these: Homo sapiens, 24 h; concentration of 1 µM of each compound; IL-1β treated A549 cells; read-out: Increased PGE2 production in A549 cells. The protocol: A549 cells were prepared at a cell number of 1 x 10^5/mL in F12K medium containing 10% FBS (Fetal Bovine Serum), and 2 x 10^4/200 µL was added to each well of a 96-well cell culture plate, and then cultured in an incubator with 5% CO2 at 37 °C for 24 hours. After the culture was complete and all F12K medium was removed, all wells were washed once with 100 µL of PBS, and treated with 160 µL of serum-free F12K medium. Then, 20 µL of IL-1β diluted 10-fold to a concentration of 1 ng/mL in serum-free F12K medium was treated to wells to be treated with IL-1β, and 20 µL of serum-free F12K medium was treated to wells not treated with IL-1β. For the wells to be treated with the compound, 20 µL of the compound dissolved in 100% DMSO was diluted to a concentration 10 times of the desired compound concentration in serum-free F12K medium so that the final DMSO concentration treated to the cells was 0.1%, and for the wells not to be treated with the compound, 20 µL of DMSO diluted in serum-free F12K medium so that the final DMSO concentration treated to the cells was 0.1% was treated. In order to confirm the increase or decrease in the secretion amount of PGE2 in the supernatant collected after culturing for 24 hours in an incubator with 5% CO2 at 37 °C, PGE2 was quantified using the Prostaglandin E2 Parameter (SKGE004B).

Assay [2] addresses T1, human 15-PGDH (Homo sapiens, UniProt P15428).
T1 construct: purchased R&D System 5660-DH
T1 sequence (P15428 1-266): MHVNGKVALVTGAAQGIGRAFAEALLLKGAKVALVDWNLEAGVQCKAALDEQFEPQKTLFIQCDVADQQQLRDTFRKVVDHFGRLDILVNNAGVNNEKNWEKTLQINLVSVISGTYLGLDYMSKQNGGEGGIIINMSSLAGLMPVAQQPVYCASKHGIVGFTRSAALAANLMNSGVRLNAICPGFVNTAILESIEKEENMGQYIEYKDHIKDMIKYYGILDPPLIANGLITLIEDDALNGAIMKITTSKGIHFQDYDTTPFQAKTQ
As to the kind of experiment: Evaluation of 15-PGDH inhibitory activity (fluorescence enzyme assay, NAD+/PGE2). It is filed as biochemical. The following applies: human 15-PGDH enzyme, fluorescence Vmax. The protocol:
15-PGDH inhibition activity of Example compounds was measured as follows. 6.7 ng of human 15-PGDH (R&D System# 5660-DH) enzyme (10 µL) was added to a black 96 well plate, 60 µL of buffer (50 mM Tris-HCl, pH 7.5, 0.01% Tween 20) was added, and 10 µL of 200 µM β-Nicotinamide adenine dinucleotide sodium salt (Sigma, Cat# N0632-5G) was added. 10 µL of (10x) compound solution in DMSO was added and reacted for 10 minutes at room temperature.

Usually IC50 stands for the midpoint of a concentration-inhibition curve. Low values mean greater potency in that assay, high ones weaker potency in that assay. For `O=C(c1cnn2c(-c3cccc(F)n3)cccc12)N1CCCCC1` [Example 271, (7-(6-fluoropyridin-2-yl)pyrazolo[1,5-a]pyridin-3-yl)(piperidin-1-yl)methanone], the fold induction at 1 µM in assay [1] is above 1.5. This molecule yielded an IC50 in assay [2] of at most 100 nM.
As to `O=C(c1cnn2c(-c3ccc4occc4c3)cccc12)N1CCCCC1` [Example 127, (7-(benzofuran-5-yl)pyrazolo[1,5-a]pyridin-3-yl)(piperidin-1-yl)methanone], the fold induction at 1 µM in assay [1] was above 1.5. Also, in assay [2], the IC50 is at most 100 nM.
For `N#Cc1ccc(Nc2cccc3c(C(=O)N4CCCCC4)cnn23)cc1` [Example 146, 4-((3-(piperidine-1-carbonyl)pyrazolo[1,5-a]pyridin-7-yl)amino)benzonitrile] the same measures were above 1.5 and at most 100 nM.
On to `Nc1nc(-c2ccc(-c3cccc4c(C(=O)N5CCCCC5)cnn34)cc2)no1` [Example 359, [7-[4-(5-amino-1,2,4-oxadiazol-3-yl)phenyl]pyrazolo[1,5-a]pyridin-3-yl]-(1-piperidyl)methanone], for which the fold induction at 1 µM in assay [1] was above 1.5. The IC50 in assay [2] is at most 100 nM.
With `O=C(Nc1cccc2c(C(=O)N3CCCCC3)cnn12)c1ccc(Cl)cc1` [Example 239, 4-chloro-N-[3-(piperidine-1-carbonyl)pyrazolo[1,5-a]pyridin-7-yl]benzamide], in assay [1], the fold induction at 1 µM was above 1.5. The IC50 in assay [2] is at most 100 nM.
Consider `O=C(c1cnn2c(-c3ccc(-c4n[nH]c(=O)o4)cc3)cccc12)N1CCCCC1` [Example 349, 5-[4-[3-(piperidine-1-carbonyl)pyrazolo[1,5-a]pyridin-7-yl]phenyl]-3H-1,3,4-oxadiazol-2-one], for which, in assay [1], the fold induction at 1 µM was above 1.5. Also, the 50% inhibitory concentration (IC50) in assay [2] was at most 100 nM.
For `CN(C)CCNC(=O)c1cccc(-c2cccc3c(C(=O)N4CCCCC4)cnn23)c1` [Example 31, N-(2-(dimethylamino)ethyl)-3-(3-(piperidine-1-carbonyl)pyrazolo[1,5-a]pyridin-7-yl)benzamide] the same measures were below 1.5 and at most 100 nM.
Turning to `CC(C)N1CCc2ccc(-c3cccc4c(C(=O)N5CCCCC5)cnn34)cc2C1=O` [Example 133, 2-isopropyl-7-(3-(piperidine-1-carbonyl)pyrazolo[1,5-a]pyridin-7-yl)-3,4-dihydroisoquinolin-1(2H)-one], in assay [1], the fold induction at 1 µM was above 1.5. For the same molecule, in assay [2], the half-inhibitory concentration (IC50) was at most 100 nM.
For `O=C(c1cnn2c(-c3ccc(-c4n[nH]c(=S)o4)nc3)cccc12)N1CCCCC1` [Example 365, 1-piperidyl-[7-[6-(2-thioxo-3H-1,3,4-oxadiazol-5-yl)-3-pyridyl]pyrazolo[1,5-a]pyridin-3-yl]methanone], in assay [1], the fold induction at 1 µM was above 1.5. The molecule further registered an IC50 in assay [2] of at most 100 nM.
For `Cn1cnc2ccc(-c3cccc4c(C(=O)N5CCCCC5)cnn34)cc2c1=O` [Example 245, 3-methyl-6-(3-(piperidine-1-carbonyl)pyrazolo[1,5-a]pyridin-7-yl)quinazolin-4(3H)-one] the same measures were above 1.5 and at most 100 nM.
With `O=C(Nc1cncc(-c2cccc3c(C(=O)N4CCCCC4)cnn23)c1)c1cncc(F)c1` [Example 335, 5-fluoro-N-(5-(3-(piperidine-1-carbonyl)pyrazolo[1,5-a]pyridin-7-yl)pyridin-3-yl)nicotinamide], in assay [1], the fold induction at 1 µM is above 1.5. The molecule also had an IC50 in assay [2] of at most 100 nM.
For `O=C(c1cnn2c(-c3ccc(NCCc4cccnc4)nc3)cccc12)N1CCCCC1` [Example 332, piperidin-1-yl(7-(6-((2-(pyridin-3-yl)ethyl)amino)pyridin-3-yl)pyrazolo[1,5-a]pyridin-3-yl)methanone] the same measures were above 1.5 and at most 100 nM.
For `O=C(c1cncc(-c2cccc3c(C(=O)N4CCCCC4)cnn23)c1)N1CC(F)C1` [Example 192, (3-fluoroazetidin-1-yl)(5-(3-(piperidine-1-carbonyl)pyrazolo[1,5-a]pyridin-7-yl)pyridin-3-yl)methanone], the fold induction at 1 µM in assay [1] is above 1.5. The 50% inhibitory concentration (IC50) in assay [2] was at most 100 nM.
For `O=C(c1cnn2c(-c3cnc(-c4noc(=O)[nH]4)nc3)cccc12)N1CCCCC1` [Example 321, 3-[5-[3-(piperidine-1-carbonyl)pyrazolo[1,5-a]pyridin-7-yl]pyrimidin-2-yl]-4H-1,2,4-oxadiazol-5-one] the same measures were above 1.5 and at most 100 nM.
For `N#CCCNC(=O)c1cccc(-c2cccc3c(C(=O)N4CCCCC4)cnn23)c1` [Example 36, N-(2-cyanoethyl)-3-(3-(piperidine-1-carbonyl)pyrazolo[1,5-a]pyridin-7-yl)benzamide] the same measures were above 1.5 and at most 100 nM.
For `O=C(c1ccc(-c2cccc3c(C(=O)N4CCCCC4)cnn23)cn1)N1CCC1` [Example 77, azetidin-1-yl(5-(3-(piperidine-1-carbonyl)pyrazolo[1,5-a]pyridin-7-yl)pyridin-2-yl)methanone] the same measures were above 1.5 and at most 100 nM.
Consider `Cn1nc2ccc(-c3cccc4c(C(=O)N5CCCCC5)cnn34)cn2c1=O` [Example 246, 2-methyl-6-(3-(piperidine-1-carbonyl)pyrazolo[1,5-a]pyridin-7-yl)-[1,2,4]triazolo[4,3-a]pyridin-3(2H)-one], for which the fold induction at 1 µM in assay [1] is above 1.5. Moreover, the IC50 in assay [2] is at most 100 nM.
For `O=C(c1cnn2c(-c3cnc(F)c(Cl)c3)cccc12)N1CCCCC1` [Example 289, (7-(5-chloro-6-fluoropyridin-3-yl)pyrazolo[1,5-a]pyridin-3-yl)(piperidin-1-yl)methanone] the same measures were above 1.5 and at most 100 nM.
Regarding `CCC1CCCN(C(=O)c2cnn3c(-c4ccc(N5CCOC5=O)nc4)cccc23)C1` (stereo not shown) [Example 354, 3-(5-(3-(3-ethylpiperidine-1-carbonyl)pyrazolo[1,5-a]pyridin-7-yl)pyridin-2-yl)oxazolidin-2-one], the fold induction at 1 µM in assay [1] was above 1.5. Also, in assay [2], the IC50 is at most 100 nM.
For `N#CCNC(=O)c1ccc(-c2cccc3c(C(=O)N4CCCCC4)cnn23)cn1` [Example 86, N-(cyanomethyl)-5-(3-(piperidine-1-carbonyl)pyrazolo[1,5-a]pyridin-7-yl)picolinamide] the same measures were above 1.5 and at most 100 nM.
Regarding `Cn1nc(N)c2cc(-c3cccc4c(C(=O)N5CCCCC5)cnn34)ccc21` [Example 261, [7-(3-amino-1-methyl-indazol-5-yl)pyrazolo[1,5-a]pyridin-3-yl]-(1-piperidyl)methanone], the fold induction at 1 µM in assay [1] is above 1.5. The molecule also gave an IC50 in assay [2] of at most 100 nM.
On to `Cc1nc(-c2ccc(-c3cccc4c(C(=O)N5CCCCC5)cnn34)cc2)no1` [Example 118, (7-(4-(5-methyl-1,2,4-oxadiazol-3-yl)phenyl)pyrazolo[1,5-a]pyridin-3-yl)(piperidin-1-yl)methanone], for which the fold induction at 1 µM in assay [1] was above 1.5. In assay [2], this molecule had a half-inhibitory concentration (IC50) of at most 100 nM.
Take `O=C(c1cnn2c(-c3ccc(N4CC5CCC4C5)nc3)cccc12)N1CCCCC1` (stereo not shown) [Example 215, (7-(6-(2-azabicyclo[2.2.1]heptan-2-yl)pyridin-3-yl)pyrazolo[1,5-a]pyridin-3-yl)(piperidin-1-yl)methanone]: the fold induction at 1 µM in assay [1] is above 1.5. The IC50 in assay [2] was at most 100 nM.
For `Cc1nc(-c2c(F)cc(-c3cccc4c(C(=O)N5CCCCC5)cnn34)cc2F)no1` [Example 328, (7-(3,5-difluoro-4-(5-methyl-1,2,4-oxadiazol-3-yl)phenyl)pyrazolo[1,5-a]pyridin-3-yl)(piperidin-1-yl)methanone] the same measures were above 1.5 and at most 100 nM.
Consider `CNC(=O)c1ncc(-c2cccc3c(C(=O)N4CCCCC4)cnn23)cc1Cl` [Example 262, 3-chloro-N-methyl-5-[3-(piperidine-1-carbonyl)pyrazolo[1,5-a]pyridin-7-yl]pyridine-2-carboxamide], for which the fold induction at 1 µM in assay [1] is above 1.5. This molecule had an IC50 in assay [2] of at most 100 nM.
For `O=C(c1cnn2c(-c3ccc(N4CCOC4=O)nc3)cccc12)N1CCCC(C(F)(F)F)C1` (stereo not shown) [Example 339, 3-(5-(3-(3-(trifluoromethyl)piperidine-1-carbonyl)pyrazolo[1,5-a]pyridin-7-yl)pyridin-2-yl)oxazolidin-2-one] the same measures were above 1.5 and at most 100 nM.

The values above are taken from patent EP4653437A2 (Innovo Therapeutics Inc., priority 2023, dated 2024).
